Source: PMC5133702, “Liver-specific ATP-citrate lyase inhibition by bempedoic acid decreases LDL-C and attenuates atherosclerosis” (Nature Communications, 2016)

Biological target: T1, ATP-citrate lyase (ACL) (Homo sapiens, UniProt P53396)
T1 construct: gene ACLY; recombinant human ACL
T1 sequence (P53396 1-1101): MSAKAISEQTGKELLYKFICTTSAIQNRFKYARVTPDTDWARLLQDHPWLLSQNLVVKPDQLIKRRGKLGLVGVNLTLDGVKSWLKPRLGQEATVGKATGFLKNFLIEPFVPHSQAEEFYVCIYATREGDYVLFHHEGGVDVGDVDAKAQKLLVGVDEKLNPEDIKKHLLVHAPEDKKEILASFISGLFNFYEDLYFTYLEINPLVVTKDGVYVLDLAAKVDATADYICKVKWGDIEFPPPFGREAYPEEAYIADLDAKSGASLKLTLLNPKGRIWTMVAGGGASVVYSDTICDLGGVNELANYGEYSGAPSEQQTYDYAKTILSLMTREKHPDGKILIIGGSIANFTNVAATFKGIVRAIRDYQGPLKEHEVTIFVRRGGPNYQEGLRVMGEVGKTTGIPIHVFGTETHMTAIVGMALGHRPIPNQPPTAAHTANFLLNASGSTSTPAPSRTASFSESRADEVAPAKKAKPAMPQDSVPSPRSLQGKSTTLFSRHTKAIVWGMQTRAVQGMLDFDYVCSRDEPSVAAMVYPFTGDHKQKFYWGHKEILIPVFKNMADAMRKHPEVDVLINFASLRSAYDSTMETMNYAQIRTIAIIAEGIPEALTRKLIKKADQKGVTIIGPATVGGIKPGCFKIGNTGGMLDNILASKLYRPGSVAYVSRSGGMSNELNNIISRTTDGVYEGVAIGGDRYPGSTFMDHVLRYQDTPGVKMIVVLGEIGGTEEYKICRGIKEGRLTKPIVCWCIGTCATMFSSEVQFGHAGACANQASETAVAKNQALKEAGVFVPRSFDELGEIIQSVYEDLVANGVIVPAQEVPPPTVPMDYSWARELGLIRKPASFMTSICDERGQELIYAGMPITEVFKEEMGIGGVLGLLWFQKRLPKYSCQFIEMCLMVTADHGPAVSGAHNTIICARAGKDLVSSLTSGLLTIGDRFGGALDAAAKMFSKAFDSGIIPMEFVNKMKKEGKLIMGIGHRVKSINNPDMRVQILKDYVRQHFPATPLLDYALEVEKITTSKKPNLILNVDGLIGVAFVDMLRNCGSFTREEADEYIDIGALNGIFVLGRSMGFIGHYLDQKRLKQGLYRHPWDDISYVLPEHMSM
Test: cell-free radiometric assay, […]-citrate to […]-acetyl-CoA, enzyme kinetics
Type: biochemical

## CC(C)(CCCCCC(O)CCCCCC(C)(C)C(=O)SCCNC(=O)CCNC(=O)[C@H](O)C(C)(C)COP(=O)(O)OP(=O)(O)OC[C@H]1O[C@@H](n2cnc3c(N)ncnc32)[C@H](O)[C@@H]1OP(=O)(O)O)C(=O)O (stereo partly shown) [ETC-1002-CoA]
  Ki: 2 µM
